In ChEMBL document CHEMBL4270488, “Antibacterial Compounds from Marine Bacteria, 2010-2015” (J Nat Prod, 2017):
Values after ≈ are worked out from the molar mass of the structure shown. Where a SMILES comes first, the peptide text is derived from it. Bridges are numbered along the chain shown (N, C = ends). [ ]: non-standard residue; d: D form. The star is where a group is joined. ξ: configuration not given here. NMeLeu(3ξ-Me) = CN[C@H](C(=O)O)C(C)C(C)C; d(cisHyp) = O=C(O)[C@H]1C[C@@H](O)CN1; Picolinoyl(3-OH) = O=C(c1ncccc1O)*; NMePhg = CN[C@H](C(=O)O)c1ccccc1; Sar = CNCC(=O)O

Assays:
Type in all cases: functional
Enterococcus faecalis = assay: Antibacterial activity against Enterococcus faecalis incubated for 18 to 20 hrs by microbroth dilution method
Streptococcus pyogenes = assay: Antibacterial activity against Streptococcus pyogenes incubated for 18 to 20 hrs by microbroth dilution method
Staphylococcus aureus [1] = assay: Antibacterial activity against community associated methicillin-resistant Staphylococcus aureus incubated for 18 to 20 hrs by microbroth dilution method
Streptococcus agalactiae = assay: Antibacterial activity against Streptococcus agalactiae incubated for 18 to 20 hrs by microbroth dilution method
Moraxella catarrhalis = assay: Antibacterial activity against Moraxella catarrhalis incubated for 18 to 20 hrs by microbroth dilution method
Haemophilus influenzae = assay: Antibacterial activity against Haemophilus influenzae incubated for 18 to 20 hrs by microbroth dilution method
Staphylococcus aureus [2] = assay: Antibacterial activity against hospital associated methicillin-resistant Staphylococcus aureus incubated for 18 to 20 hrs by microbroth dilution method

Structure (SMILES): CC(C)C[C@H]1NC(=O)[C@@H](NC(=O)c2ncccc2O)[C@@H](C)OC(=O)[C@H](c2ccccc2)N(C)C(=O)[C@H](C)NC(=O)[C@H](C(C)C(C)C)N(C)C(=O)CN(C)C(=O)[C@H]2C[C@@H](O)CN2C1=O (stereo partly drawn) [VIRIFOGRISEIN I] ({Picolinoyl(3-OH)}-T[dL][d(cisHyp)][Sar][NMeLeu(3ξ-Me)]A[NMePhg]; ester 1-C)
- MIC (Enterococcus faecalis): 16 µg/mL (≈ 18.2 µM)
- MIC (Streptococcus pyogenes): 8 µg/mL (≈ 9.1 µM)
- MIC (Staphylococcus aureus [1]): 1 to 2 µg/mL (≈ 1.14 to 2.28 µM)
- MIC (Streptococcus agalactiae): 8 µg/mL (≈ 9.1 µM)
- MIC (Moraxella catarrhalis): 1 µg/mL (≈ 1.14 µM)
- MIC (Haemophilus influenzae): 16 µg/mL (≈ 18.2 µM)
- MIC (Staphylococcus aureus [2]): 1 to 2 µg/mL (≈ 1.14 to 2.28 µM)
